# Measurements reported in ChEMBL document CHEMBL5291721, “A preclinical secondary pharmacology resource illuminates target-adverse drug reaction associations of marketed drugs” (Nat Commun, 2023).
# How the values were obtained:
# [1] = target: T1, Muscarinic acetylcholine receptor M4 (Homo sapiens, UniProt P08173)
# T1 sequence (P08173 whole entry): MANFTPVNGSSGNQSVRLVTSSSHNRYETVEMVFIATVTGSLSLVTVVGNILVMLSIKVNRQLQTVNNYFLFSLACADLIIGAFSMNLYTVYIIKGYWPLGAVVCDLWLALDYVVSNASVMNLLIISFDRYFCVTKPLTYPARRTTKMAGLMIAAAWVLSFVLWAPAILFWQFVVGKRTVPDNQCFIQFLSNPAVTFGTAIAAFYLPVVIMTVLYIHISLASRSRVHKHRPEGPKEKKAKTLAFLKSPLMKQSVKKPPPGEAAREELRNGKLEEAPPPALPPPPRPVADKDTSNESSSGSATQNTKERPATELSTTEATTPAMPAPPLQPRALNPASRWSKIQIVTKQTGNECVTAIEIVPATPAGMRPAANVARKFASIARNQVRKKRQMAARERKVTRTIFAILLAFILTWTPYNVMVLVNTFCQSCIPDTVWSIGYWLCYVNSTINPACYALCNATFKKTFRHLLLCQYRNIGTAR
# [2] = target: 5-hydroxytryptamine receptor 5A (Homo sapiens, UniProt P47898)
# 5-hydroxytryptamine receptor 5A, sequence (P47898 whole entry): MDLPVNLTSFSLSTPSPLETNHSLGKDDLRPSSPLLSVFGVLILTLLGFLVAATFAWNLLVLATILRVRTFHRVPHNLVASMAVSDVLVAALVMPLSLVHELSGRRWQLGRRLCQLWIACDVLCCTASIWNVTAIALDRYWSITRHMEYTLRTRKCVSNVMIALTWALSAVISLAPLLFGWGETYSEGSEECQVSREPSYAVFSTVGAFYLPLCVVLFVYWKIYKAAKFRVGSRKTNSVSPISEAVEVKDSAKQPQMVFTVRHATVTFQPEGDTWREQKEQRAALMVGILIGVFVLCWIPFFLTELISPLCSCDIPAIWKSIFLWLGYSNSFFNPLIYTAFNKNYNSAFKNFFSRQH
# [3] = target: T2, Substance-K receptor (Homo sapiens, UniProt P21452)
# T2 sequence (P21452 whole entry): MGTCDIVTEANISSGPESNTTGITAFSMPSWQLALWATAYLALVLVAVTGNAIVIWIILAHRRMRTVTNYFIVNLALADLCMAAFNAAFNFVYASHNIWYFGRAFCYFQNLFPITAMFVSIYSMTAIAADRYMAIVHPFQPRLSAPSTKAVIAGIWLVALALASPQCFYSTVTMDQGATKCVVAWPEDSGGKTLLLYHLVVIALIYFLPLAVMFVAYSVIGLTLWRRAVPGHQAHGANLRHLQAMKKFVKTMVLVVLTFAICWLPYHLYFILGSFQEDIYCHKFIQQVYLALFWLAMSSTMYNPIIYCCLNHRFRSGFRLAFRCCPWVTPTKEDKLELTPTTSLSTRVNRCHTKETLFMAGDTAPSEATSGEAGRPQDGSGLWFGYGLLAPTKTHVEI
# [4] = target: Synaptic vesicular amine transporter (Rattus norvegicus, UniProt Q01827); type: functional
# Synaptic vesicular amine transporter, sequence (Q01827 whole entry): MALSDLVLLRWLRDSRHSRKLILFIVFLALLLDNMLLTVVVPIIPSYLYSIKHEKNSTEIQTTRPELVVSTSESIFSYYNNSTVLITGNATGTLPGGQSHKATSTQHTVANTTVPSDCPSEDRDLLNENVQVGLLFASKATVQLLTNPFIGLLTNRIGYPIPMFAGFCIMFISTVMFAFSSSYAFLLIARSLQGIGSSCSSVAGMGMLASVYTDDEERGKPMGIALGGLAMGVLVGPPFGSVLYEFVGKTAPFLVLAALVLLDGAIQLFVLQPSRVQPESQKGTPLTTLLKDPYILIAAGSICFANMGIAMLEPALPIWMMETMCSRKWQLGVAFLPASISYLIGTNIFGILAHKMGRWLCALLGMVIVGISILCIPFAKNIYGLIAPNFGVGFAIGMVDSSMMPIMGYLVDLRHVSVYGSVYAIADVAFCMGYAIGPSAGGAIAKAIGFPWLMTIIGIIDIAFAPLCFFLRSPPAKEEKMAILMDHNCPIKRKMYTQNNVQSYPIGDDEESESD
# [5] = target: T3, Type-2 angiotensin II receptor (Homo sapiens, UniProt P50052); type: functional
# T3 sequence (P50052 whole entry): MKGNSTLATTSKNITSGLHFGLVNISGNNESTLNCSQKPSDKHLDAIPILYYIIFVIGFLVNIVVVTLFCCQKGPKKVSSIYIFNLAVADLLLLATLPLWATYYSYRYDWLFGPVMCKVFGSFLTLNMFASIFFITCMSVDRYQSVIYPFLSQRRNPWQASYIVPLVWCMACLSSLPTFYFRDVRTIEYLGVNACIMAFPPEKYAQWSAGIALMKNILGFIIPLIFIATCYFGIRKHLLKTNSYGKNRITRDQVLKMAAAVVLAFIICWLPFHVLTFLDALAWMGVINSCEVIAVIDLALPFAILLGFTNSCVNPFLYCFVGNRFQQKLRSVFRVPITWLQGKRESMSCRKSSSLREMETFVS
# [6] = target: T4, Retinoic acid receptor alpha (Homo sapiens, UniProt P10276); type: functional, cell-based
# T4 sequence (P10276 whole entry): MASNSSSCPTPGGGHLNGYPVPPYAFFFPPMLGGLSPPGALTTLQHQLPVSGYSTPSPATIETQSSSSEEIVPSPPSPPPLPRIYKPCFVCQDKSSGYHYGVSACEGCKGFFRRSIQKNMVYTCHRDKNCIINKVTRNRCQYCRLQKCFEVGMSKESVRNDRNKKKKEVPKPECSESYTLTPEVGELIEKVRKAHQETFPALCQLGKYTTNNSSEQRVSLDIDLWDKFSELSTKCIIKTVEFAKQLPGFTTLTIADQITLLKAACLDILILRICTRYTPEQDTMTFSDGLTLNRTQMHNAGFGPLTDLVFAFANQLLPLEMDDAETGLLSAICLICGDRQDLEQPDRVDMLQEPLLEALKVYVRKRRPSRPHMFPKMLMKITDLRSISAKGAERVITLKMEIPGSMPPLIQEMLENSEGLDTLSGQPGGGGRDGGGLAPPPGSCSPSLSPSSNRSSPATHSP
# [7] = target: T5, Glucocorticoid receptor (Homo sapiens, UniProt P04150); type: functional
# T5 sequence (P04150 whole entry): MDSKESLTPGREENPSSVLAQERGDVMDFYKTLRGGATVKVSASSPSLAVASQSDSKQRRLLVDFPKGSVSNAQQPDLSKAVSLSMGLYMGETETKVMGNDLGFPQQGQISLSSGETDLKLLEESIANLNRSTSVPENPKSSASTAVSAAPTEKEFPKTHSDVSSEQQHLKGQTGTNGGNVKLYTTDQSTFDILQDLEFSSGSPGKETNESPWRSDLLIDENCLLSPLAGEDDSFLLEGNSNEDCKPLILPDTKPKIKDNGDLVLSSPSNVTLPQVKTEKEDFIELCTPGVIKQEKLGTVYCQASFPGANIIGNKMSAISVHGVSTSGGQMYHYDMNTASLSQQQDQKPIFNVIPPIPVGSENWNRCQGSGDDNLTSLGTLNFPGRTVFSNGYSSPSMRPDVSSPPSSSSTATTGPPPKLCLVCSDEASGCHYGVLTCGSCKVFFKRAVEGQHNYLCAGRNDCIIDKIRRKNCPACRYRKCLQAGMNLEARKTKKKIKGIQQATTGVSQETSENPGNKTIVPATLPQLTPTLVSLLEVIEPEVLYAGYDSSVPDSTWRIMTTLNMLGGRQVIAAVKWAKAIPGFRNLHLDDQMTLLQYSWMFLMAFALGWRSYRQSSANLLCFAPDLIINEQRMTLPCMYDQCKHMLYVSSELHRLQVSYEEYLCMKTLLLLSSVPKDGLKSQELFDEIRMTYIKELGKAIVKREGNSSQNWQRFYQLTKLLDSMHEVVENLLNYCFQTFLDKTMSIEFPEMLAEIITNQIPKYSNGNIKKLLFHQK
# [8] = target: Beta-1 adrenergic receptor (Homo sapiens, UniProt P08588); type: functional, cell-based
# Beta-1 adrenergic receptor, sequence (P08588 whole entry): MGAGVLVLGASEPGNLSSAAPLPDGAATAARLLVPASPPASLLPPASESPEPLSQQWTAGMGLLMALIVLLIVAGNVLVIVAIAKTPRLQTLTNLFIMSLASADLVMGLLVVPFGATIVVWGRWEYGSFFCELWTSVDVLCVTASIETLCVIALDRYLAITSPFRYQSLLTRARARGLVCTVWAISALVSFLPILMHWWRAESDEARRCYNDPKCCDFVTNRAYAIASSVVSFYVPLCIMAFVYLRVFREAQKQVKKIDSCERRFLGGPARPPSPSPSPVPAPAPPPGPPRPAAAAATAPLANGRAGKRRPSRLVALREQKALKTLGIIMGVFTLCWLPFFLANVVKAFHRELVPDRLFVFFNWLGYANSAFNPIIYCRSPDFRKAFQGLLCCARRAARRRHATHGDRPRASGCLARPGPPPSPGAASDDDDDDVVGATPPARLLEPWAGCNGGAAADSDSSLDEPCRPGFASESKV
# [9] = target: Voltage-dependent L-type calcium channel subunit alpha-1C (Homo sapiens, UniProt Q13936); type: functional, cell-based
# Voltage-dependent L-type calcium channel subunit alpha-1C, sequence (Q13936 whole entry): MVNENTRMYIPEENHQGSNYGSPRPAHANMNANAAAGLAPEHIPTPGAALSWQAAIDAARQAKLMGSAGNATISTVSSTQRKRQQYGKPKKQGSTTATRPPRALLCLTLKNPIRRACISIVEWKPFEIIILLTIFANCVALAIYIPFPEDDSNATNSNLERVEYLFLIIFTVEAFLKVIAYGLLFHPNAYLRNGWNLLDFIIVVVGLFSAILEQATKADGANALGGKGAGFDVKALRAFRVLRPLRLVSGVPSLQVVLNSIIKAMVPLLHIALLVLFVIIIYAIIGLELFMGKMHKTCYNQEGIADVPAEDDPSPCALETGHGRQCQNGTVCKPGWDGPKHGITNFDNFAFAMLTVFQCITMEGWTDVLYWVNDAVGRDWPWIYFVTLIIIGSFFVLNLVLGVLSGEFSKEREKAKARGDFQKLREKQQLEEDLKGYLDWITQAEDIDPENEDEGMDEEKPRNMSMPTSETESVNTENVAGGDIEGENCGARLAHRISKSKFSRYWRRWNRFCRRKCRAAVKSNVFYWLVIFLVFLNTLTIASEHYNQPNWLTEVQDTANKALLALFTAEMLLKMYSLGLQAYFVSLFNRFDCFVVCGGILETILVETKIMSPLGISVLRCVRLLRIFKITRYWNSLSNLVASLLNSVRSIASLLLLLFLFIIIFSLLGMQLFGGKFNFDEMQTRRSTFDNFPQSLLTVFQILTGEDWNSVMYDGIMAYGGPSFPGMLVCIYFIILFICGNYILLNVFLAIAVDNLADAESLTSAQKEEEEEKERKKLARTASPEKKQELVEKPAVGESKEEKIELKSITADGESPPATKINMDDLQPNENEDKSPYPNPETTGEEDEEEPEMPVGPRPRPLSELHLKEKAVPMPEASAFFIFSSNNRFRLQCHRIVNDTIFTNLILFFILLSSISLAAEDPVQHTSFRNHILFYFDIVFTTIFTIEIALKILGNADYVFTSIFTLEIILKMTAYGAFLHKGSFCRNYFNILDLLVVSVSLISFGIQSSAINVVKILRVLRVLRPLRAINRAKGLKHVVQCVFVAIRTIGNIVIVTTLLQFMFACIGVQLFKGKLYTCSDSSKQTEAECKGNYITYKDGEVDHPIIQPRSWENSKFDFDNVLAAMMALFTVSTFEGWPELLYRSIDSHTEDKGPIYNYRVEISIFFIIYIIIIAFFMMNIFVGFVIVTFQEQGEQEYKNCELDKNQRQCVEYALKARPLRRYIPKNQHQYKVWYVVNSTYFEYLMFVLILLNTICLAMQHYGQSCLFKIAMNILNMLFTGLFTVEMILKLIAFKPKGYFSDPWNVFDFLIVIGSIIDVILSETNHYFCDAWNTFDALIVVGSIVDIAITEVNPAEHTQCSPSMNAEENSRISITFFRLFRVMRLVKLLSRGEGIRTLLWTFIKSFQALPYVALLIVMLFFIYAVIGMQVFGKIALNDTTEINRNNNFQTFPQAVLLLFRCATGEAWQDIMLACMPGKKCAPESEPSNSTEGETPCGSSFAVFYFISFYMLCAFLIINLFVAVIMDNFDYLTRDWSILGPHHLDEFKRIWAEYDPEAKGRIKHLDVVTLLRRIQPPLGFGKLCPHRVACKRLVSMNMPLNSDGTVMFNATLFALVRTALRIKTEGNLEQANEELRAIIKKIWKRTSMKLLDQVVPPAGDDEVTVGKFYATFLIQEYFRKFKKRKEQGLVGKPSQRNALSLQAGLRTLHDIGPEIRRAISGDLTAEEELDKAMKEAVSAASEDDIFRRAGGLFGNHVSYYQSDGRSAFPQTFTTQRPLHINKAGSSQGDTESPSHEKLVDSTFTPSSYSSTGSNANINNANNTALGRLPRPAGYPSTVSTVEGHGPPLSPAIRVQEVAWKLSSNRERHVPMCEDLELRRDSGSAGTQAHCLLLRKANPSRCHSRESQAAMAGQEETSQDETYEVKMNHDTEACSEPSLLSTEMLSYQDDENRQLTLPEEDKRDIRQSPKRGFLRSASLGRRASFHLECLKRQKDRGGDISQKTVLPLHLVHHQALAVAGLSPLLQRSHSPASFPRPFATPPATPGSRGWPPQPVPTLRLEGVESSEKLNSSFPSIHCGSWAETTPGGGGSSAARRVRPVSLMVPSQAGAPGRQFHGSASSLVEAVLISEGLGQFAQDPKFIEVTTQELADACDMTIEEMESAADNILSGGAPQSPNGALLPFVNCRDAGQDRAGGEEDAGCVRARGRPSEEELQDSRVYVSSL
# Further: assay procedure not described here.
structure (smiles),measurement,setting,value
Cc1ccc(-c2ncc(Cl)cc2-c2ccc(S(C)(=O)=O)cc2)cn1 [ETORICOXIB],AC50,[1],> 10 µM
same,AC50,[2],> 10 µM
same,AC50,[3],> 10 µM
CC(NC(C)(C)C)C(=O)c1cccc(Cl)c1 (stereo not drawn) [BUPROPION],AC50,[1],> 10 µM
same,AC50,[4],> 30000 nM
same,AC50,[2],> 10 µM
same,AC50,[3],> 10 µM
CC(C)(C)NCC(O)COc1cccc2c1CC(O)C(O)C2 (stereo not drawn) [NADOLOL],AC50,[5],> 100 µM
CC(=O)N1CCN(c2ccc(OCC3COC(Cn4ccnc4)(c4ccc(Cl)cc4Cl)O3)cc2)CC1 (stereo not drawn) [KETOCONAZOLE],AC50,[4],570 nM
same,AC50,[6],> 30 µM
CCN(CC)CC(=O)Nc1c(C)cccc1C [LIDOCAINE],AC50,[3],> 10 µM
COc1ccc(-n2nc(C(N)=O)c3c2C(=O)N(c2ccc(N4CCCCC4=O)cc2)CC3)cc1 [APIXABAN],AC50,[7],> 30 µM
CC1Cc2ccccc2N1NC(=O)c1ccc(Cl)c(S(N)(=O)=O)c1 (stereo not drawn) [INDAPAMIDE],AC50,[5],> 100 µM
CN1C2CCCC1CC(NC(=O)c1nn(C)c3ccccc13)C2 (stereo not drawn) [GRANISETRON],AC50,[1],> 10 µM
same,AC50,[2],> 10 µM
same,AC50,[3],> 10 µM
Cc1ccc(S(=O)(=O)NC(=O)N[C@H]2[C@H]3CC[C@@](C)([C@H]2O)C3(C)C)cc1 [GLIBORNURIDE],AC50,[8],> 30 µM
CCCCCCOC(=O)NC(=N)c1ccc(NCc2nc3cc(C(=O)N(CCC(=O)OCC)c4ccccn4)ccc3n2C)cc1 [DABIGATRAN ETEXILATE],AC50,[7],> 30 µM
CCCCCCCC(=O)CC[C@@H]1[C@@H](C/C=C\CCCC(=O)O)[C@@H](O)C[C@H]1O [UNOPROSTONE],AC50,[9],> 50 µM
CC(=O)OCC(=O)[C@@]1(O)CC[C@H]2[C@@H]3CCC4=CC(=O)CC[C@]4(C)[C@@]3(F)[C@@H](O)C[C@@]21C [FLUDROCORTISONE ACETATE],AC50,[8],> 30 µM
O=C(O)c1ccc2nc(-c3cc(Cl)cc(Cl)c3)oc2c1,AC50,[9],> 30 µM
COc1nc(C)nc(Cl)c1N=C1NCCN1 [MOXONIDINE],AC50,[8],> 30 µM
CN1CCCN=C1/C=C/c1cccc(O)c1 [OXANTEL],AC50,[8],> 30 µM
